Measured values reported in the supplement of paper PMC10307832.

Legend:
Assay in all cases: relative viability (nuclei count vs DMSO), 5 days (fraction); higher = more cells survive
Dovitinib + Trametinib = compound: CN1CCN(c2ccc3nc(-c4c(N)c5c(F)cccc5[nH]c4=O)[nH]c3c2)CC1 [Dovitinib] + CC(=O)Nc1cccc(-n2c(=O)n(C3CC3)c(=O)c3c(Nc4ccc(I)cc4F)n(C)c(=O)c(C)c32)c1 [Trametinib] (partner 0.02 µM)
Method in brief: (§1)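 For relative viability, nuclei counts in treated wells were divided by those in vehicle wells. Lung cancer cell lines had been pin-tool dosed in 1536-well plates the day after seeding and cultured for 5 days, then fixed and stained in one step (final 0.05% Triton X-100, 1% formaldehyde, 1 ug/ml Hoechst) and imaged at 4×. Doses were one drug alone or a fixed anchor-drug dose plus five library-drug doses (not always all listed) in √10 steps, and values are duplicate-plate medians.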

Dovitinib + Crizotinib = compound: CN1CCN(c2ccc3nc(-c4c(N)c5c(F)cccc5[nH]c4=O)[nH]c3c2)CC1 [Dovitinib] + C[C@@H](Oc1cc(-c2cnn(C3CCNCC3)c2)cnc1N)c1c(Cl)ccc(F)c1Cl [Crizotinib] (partner 1 µM)
Method in brief: as §1

Dovitinib + Phenformin = compound: CN1CCN(c2ccc3nc(-c4c(N)c5c(F)cccc5[nH]c4=O)[nH]c3c2)CC1 [Dovitinib] + N=C(N)NC(=N)NCCc1ccccc1 [Phenformin] (partner 250 µM)
Method in brief: as §1

Dovitinib + OSI-027 = compound: CN1CCN(c2ccc3nc(-c4c(N)c5c(F)cccc5[nH]c4=O)[nH]c3c2)CC1 [Dovitinib] + COc1cccc2cc(-c3nc([C@H]4CC[C@H](C(=O)O)CC4)n4ncnc(N)c34)[nH]c12 [OSI-027] (partner 0.5 µM)
Method in brief: as §1

Row | Cell Line | relative viability (Dovitinib + Trametinib; first compound 0.02 µM) | relative viability (Dovitinib + Trametinib; first compound 0.06325 µM) | relative viability (Dovitinib + Trametinib; first compound 0.2 µM) | relative viability (Dovitinib + Trametinib; first compound 0.6325 µM) | relative viability (Dovitinib + Trametinib; first compound 2 µM) | relative viability (Dovitinib + Crizotinib; first compound 0.02 µM) | relative viability (Dovitinib + Crizotinib; first compound 0.06325 µM) | relative viability (Dovitinib + Crizotinib; first compound 0.2 µM) | relative viability (Dovitinib + Crizotinib; first compound 0.6325 µM) | relative viability (Dovitinib + Crizotinib; first compound 2 µM) | relative viability (Dovitinib + Phenformin; first compound 0.02 µM) | relative viability (Dovitinib + Phenformin; first compound 0.06325 µM) | relative viability (Dovitinib + Phenformin; first compound 0.2 µM) | relative viability (Dovitinib + Phenformin; first compound 0.6325 µM) | relative viability (Dovitinib + Phenformin; first compound 2 µM) | relative viability (Dovitinib + OSI-027; first compound 0.02 µM) | relative viability (Dovitinib + OSI-027; first compound 0.06325 µM) | relative viability (Dovitinib + OSI-027; first compound 0.2 µM) | relative viability (Dovitinib + OSI-027; first compound 0.6325 µM) | relative viability (Dovitinib + OSI-027; first compound 2 µM)
1 | NCI-H2023 | 0.549 | 0.493 | 0.405 | 0.5 | 0.537 | 0.55 | 0.604 | 0.591 | 0.573 | 0.481 | 0.38 | 0.416 | 0.457 | 0.38 | 0.398 | 0.429 | 0.404 | 0.476 | 0.394 | 0.362
2 | NCI-H2085 | 0.534 | 0.628 | 0.599 | 0.528 | 0.627 | 0.753 | 0.904 | 0.851 | 0.856 | 0.9 | 0.69 | 0.846 | 0.732 | 0.771 | 0.717 | 0.672 | 0.71 | 0.734 | 0.829 | 0.839
3 | NCI-H2087 | 0.274 | 0.221 | 0.251 | 0.196 | 0.214 | 0.817 | 0.66 | 0.878 | 0.796 | 0.778 | 0.415 | 0.437 | 0.516 | 0.53 | 0.467 | 0.57 | 0.487 | 0.757 | 0.484 | 0.554
4 | NCI-H2126 | 0.576 | 0.56 | 0.569 | 0.598 | 0.522 | 1.03 | 1.04 | 1.05 | 1.02 | 1.08 | 0.524 | 0.504 | 0.582 | 0.536 | 0.581 | 0.74 |  | 0.855 | 0.699 | 0.638
5 | NCI-H2170 | 0.928 | 0.92 | 1.04 | 0.866 | 0.945 | 1.12 | 1.23 | 1.23 | 1.14 | 1.2 | 0.357 | 0.43 | 0.448 | 0.338 | 0.452 | 0.572 | 0.711 | 0.718 | 0.708 | 0.723
6 | NCI-H2228 | 0.652 | 0.467 | 0.454 | 0.507 | 0.488 | 0.399 | 0.379 | 0.436 | 0.454 | 0.367 | 0.288 | 0.419 | 0.285 | 0.432 | 0.285 | 0.638 | 0.533 | 0.512 | 0.681 | 0.635
7 | NCI-H2347 | 0.284 | 0.289 | 0.286 | 0.277 | 0.271 | 0.784 | 0.653 | 0.79 | 0.961 | 0.676 | 0.294 | 0.381 | 0.378 | 0.43 | 0.376 | 0.568 | 0.265 | 0.471 | 0.545 | 0.529
8 | NCI-H2405 | 0.757 | 0.56 | 0.692 | 0.597 | 0.738 | 0.87 | 0.762 | 0.862 | 0.773 | 0.935 | 0.389 | 0.345 | 0.448 | 0.331 | 0.446 | 0.627 | 0.594 | 0.591 | 0.656 | 0.692
